Test results taken from patent publication US6488943B1, “Antimicrobial wipes which provide improved immediate germ reduction” (The Procter & Gamble Company, priority 1999, dated 2002).

System: Vibrio fischerio
Assay: Microtox Response Test (bioluminescence of Microtox Acute Toxicity Reagent)
Type: cell-based
Conditions: pure anionic surfactant; EC50 for 50% decrease of bioluminescence, 5 minutes
Method: Reference: Microtox Manual: A Toxicity Testing Handbook, 1992 Volume I-IV; Microbics Corporation.
Equipment: Microtox M500 Toxicity Testing Unit; Microbics Corporation Connected to computer for data acquisition and analysis according to above reference.
1. Preparation of Sample Stock Solution (Standard Concentration: 1000 ppm)
The stock solution of the test anionic surfactant sample is prepared and used as a stock solution from which all other dilutions are made. The standard “starting concentration”, the highest concentration to be tested, is 500 ppm. […]
a) Turn on test unit and allow reagent well temperature to equilibrate at 5.5° C. and incubator block and read well temperature to equilibrate at 15° C. […]
c) Place the assay cuvette containing reagent which corresponds to the test blank into the read well and press SET. After the cuvette has resurfaced press READ and the value will be captured by the computer.
d) Similarly read the remaining 7 cuvettes containing reagent when prompted by the computer by pressing the READ button with the correct cuvette in the READ well.
e) After all 8 initial reading have been taken, transfer 500 μl of the diluted test substance into their corresponding cuvette containing the reagent. […]

| Compound | Microtox Index [ppm] |
| --- | --- |
| ammonium laureth-3 sulfate | 120 |
| CCCCCCCCCCCCOS(=O)(=O)O.N [ammonium lauryl sulfate] | 1.0 |
